The source of these data is patent US20230322767A1, “ARYL SUBSTITUTED PYRROLO-PYRIDINONES AND THERAPEUTIC USES THEREOF” (Bayer Aktiengesellschaft, priority 2020, published 2023).

Where two headings read alike, the source gives them in different places. Where only a bound is given, the exact number is not on record here.

Common to all, as to assay type: biochemical
For experiment [1], the target named is wild-type Epidermal Growth Factor Receptor (EGFR) (Homo sapiens (Human), UniProt P00533). The experiment is described as follows: WT-EGFR Kinase Assay (TR-FRET, 2 mM ATP). The method in brief:
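GST-tagged human EGFR (R669–A1210, Sf9-expressed) preincubated 15 min at 22° C with compound in pH 7.0 Hepes/MgCl2 buffer, then reacted at 2 mM ATP with a biotinylated peptide substrate. Phosphorylation detected by TR-FRET (streptavidin-XL665, Tb-cryptate anti-phosphotyrosine) as the 665/620 nm emission ratio.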
(In general: TR-FRET usually uses a lanthanide donor and a delayed reading to cut background.)

The target in another experiment is CSNK1A1 (Homo sapiens (Human), UniProt P48729). Kind of experiment: CSNK1A1 Assay 2 (ADP-Glo, 1 μM ATP). The note with it: median, read-out: CSNK1A1 Assay 2 IC50 [mol/l] (median). The method in brief:
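Enzyme (~0.0375 ng/μL) preincubated 15 min at 22° C with compound in HEPES pH 7.5 buffer, then reacted with 1 μM ATP and biotin-Ahx-KRRRAL-pS-VASLPGL peptide. ADP product measured by ADP-Glo luminescence after 1 h ATP depletion and 1 h detection at 22° C.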
Background: In ADP-Glo the light output rises with the ADP produced.

The target in another experiment is CSNK1D (Homo sapiens (Human), UniProt P48730). Kind of experiment: CSNK1D Assay (ADP-Glo, 1 μM ATP). The note with it: median, read-out: CSNK1D IC50 [mol/l] (median). The method in brief: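 Enzyme preincubated with compound 15 min at 22° C in 50 mM HEPES pH 7.5 buffer with 10 mM MgCl2, 1 mM DTT; kinase reaction run at 1 μM ATP with biotinylated peptide substrate. ADP formed was detected by ADP-Glo luminescence as the measure of activity.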
Sequence of CSNK1D (P48730 whole entry): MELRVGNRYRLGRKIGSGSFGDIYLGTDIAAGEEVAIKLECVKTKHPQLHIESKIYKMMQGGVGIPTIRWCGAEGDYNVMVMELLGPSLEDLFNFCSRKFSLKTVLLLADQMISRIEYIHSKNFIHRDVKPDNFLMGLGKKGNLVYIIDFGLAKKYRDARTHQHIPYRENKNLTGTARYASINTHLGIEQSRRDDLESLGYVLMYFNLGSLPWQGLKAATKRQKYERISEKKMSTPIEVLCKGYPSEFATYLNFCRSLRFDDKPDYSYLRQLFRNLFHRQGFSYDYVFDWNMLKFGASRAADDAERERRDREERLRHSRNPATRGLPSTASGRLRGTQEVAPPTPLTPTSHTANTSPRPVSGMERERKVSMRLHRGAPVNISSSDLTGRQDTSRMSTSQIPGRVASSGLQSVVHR

The mark [2] stands for this setting: EGFR Wildtyp 2 mM ATP IC50 [mol/l] (median), median or individual measurements.
Where [3] appears, read: read-out: EGFR Wildtyp 2 mM ATP IC50 [mol/l] (median), median or individual measurements.

Sequence of wild-type Epidermal Growth Factor Receptor (EGFR) (P00533 669-1210): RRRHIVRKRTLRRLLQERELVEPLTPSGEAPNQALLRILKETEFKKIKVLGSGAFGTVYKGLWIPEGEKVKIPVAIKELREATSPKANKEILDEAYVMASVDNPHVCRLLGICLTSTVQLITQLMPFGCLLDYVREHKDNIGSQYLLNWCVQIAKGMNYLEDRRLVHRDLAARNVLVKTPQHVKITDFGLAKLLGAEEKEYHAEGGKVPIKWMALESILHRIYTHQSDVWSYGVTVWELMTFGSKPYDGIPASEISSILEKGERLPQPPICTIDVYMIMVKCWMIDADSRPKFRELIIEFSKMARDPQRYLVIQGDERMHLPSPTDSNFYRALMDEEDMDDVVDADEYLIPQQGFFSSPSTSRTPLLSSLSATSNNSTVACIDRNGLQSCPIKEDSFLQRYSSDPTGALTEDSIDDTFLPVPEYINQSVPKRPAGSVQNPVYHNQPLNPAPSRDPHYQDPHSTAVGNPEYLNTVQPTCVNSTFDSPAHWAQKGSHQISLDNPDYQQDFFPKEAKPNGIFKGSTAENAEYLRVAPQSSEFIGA
Sequence of CSNK1A1 (P48729 whole entry): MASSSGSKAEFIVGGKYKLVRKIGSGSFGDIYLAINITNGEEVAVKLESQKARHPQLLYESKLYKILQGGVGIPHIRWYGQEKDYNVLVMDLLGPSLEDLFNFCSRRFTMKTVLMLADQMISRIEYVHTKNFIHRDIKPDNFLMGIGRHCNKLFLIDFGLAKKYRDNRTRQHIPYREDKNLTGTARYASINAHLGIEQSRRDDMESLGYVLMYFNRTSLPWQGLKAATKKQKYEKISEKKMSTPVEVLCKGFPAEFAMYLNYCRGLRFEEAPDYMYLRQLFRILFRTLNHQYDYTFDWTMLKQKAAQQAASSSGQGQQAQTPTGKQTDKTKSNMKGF

Take `CC(C(=O)Nc1cc(-c2[nH]c3ccn(C)c(=O)c3c2-c2ccccc2)ccn1)c1ccc(F)cc1` (racemic) [Example 103, 2-(4-fluorophenyl)-N-[4-(5-methyl-4-oxo-3-phenyl-4,5-dihydro-1H-pyrrolo[3,2-c]pyridin-2-yl)pyridin-2-yl]propanamide]: the IC50 in experiment [1] (setting [2]) was > 20000 nM; at CSNK1A1, 5 nM; at CSNK1D, 11 nM.
As for `CC(C(=O)Nc1cc(-c2[nH]c3ccn(C)c(=O)c3c2-c2cccc(Cl)c2)ccn1)c1ccc(F)cc1` (racemic) [Example 106, N-{4-[3-(3-chlorophenyl)-5-methyl-4-oxo-4,5-dihydro-1H-pyrrolo[3,2-c]pyridin-2-yl]pyridin-2-yl}-2-(4-fluorophenyl)propanamide], the figures for the IC50 (in experiment [1] (setting [2]); at CSNK1A1; at CSNK1D) were > 20000 nM, 9.2 nM and 11 nM, respectively.
The like results for `Cn1ccc2[nH]c(-c3ccnc(NC(=O)C(CC(F)F)c4ccc(F)cc4)c3)c(-c3ccc(F)cc3)c2c1=O` (racemic) [Example 107, 4,4-difluoro-2-(4-fluorophenyl)-N-{4-[3-(4-fluorophenyl)-5-methyl-4-oxo-4,5-dihydro-1H-pyrrolo[3,2-c]pyridin-2-yl]pyridin-2-yl}butanamide] were, in that order, > 20000 nM, 3.5 nM and 4.4 nM.
The corresponding values for `CC(C(=O)Nc1cc(-c2[nH]c3ccn(C)c(=O)c3c2-c2cccnc2F)ccn1)c1ccc(F)cc1` (racemic) [Example 110, 2-(4-fluorophenyl)-N-{4-[3-(2-fluoropyridin-3-yl)-5-methyl-4-oxo-4,5-dihydro-1H-pyrrolo[3,2-c]pyridin-2-yl]pyridin-2-yl}propanamide] are > 20000 nM, 30 nM and 21 nM.
The like results for `Cc1ccccc1-c1c(-c2ccnc(NC(=O)C(C)c3ccc(F)cc3)c2)[nH]c2ccn(C)c(=O)c12` (racemic) [Example 111, 2-(4-fluorophenyl)-N-{4-[5-methyl-3-(2-methylphenyl)-4-oxo-4,5-dihydro-1H-pyrrolo[3,2-c]pyridin-2-yl]pyridin-2-yl}propanamide] were, in that order, > 20000 nM, 37 nM and 22 nM.
Regarding `CC(C(=O)Nc1cc(-c2[nH]c3ccn(C)c(=O)c3c2-c2ccccc2Cl)ccn1)c1ccc(F)cc1` (racemic) [Example 112, N-{4-[3-(2-chlorophenyl)-5-methyl-4-oxo-4,5-dihydro-1H-pyrrolo[3,2-c]pyridin-2-yl]pyridin-2-yl}-2-(4-fluorophenyl)propanamide], the figures for the IC50 (in experiment [1] (setting [2]); on CSNK1A1; on CSNK1D) were > 20000 nM, 23 nM and 14 nM, respectively.
The like results for `CC(C(=O)Nc1cc(-c2[nH]c3ccn(C)c(=O)c3c2-c2cccc(O)c2)ccn1)c1ccc(F)cc1` (racemic) [Example 113, 2-(4-fluorophenyl)-N-{4-[3-(3-hydroxyphenyl)-5-methyl-4-oxo-4,5-dihydro-1H-pyrrolo[3,2-c]pyridin-2-yl]pyridin-2-yl}propanamide] were, in that order, > 20000 nM, 32 nM and 33 nM.
The corresponding values for `CC(C(=O)Nc1cc(-c2[nH]c3ccn(C)c(=O)c3c2-c2ccc(F)c(F)c2)ccn1)c1ccc(F)cc1` (racemic) [Example 114, N-{4-[3-(3,4-difluorophenyl)-5-methyl-4-oxo-4,5-dihydro-1H-pyrrolo[3,2-c]pyridin-2-yl]pyridin-2-yl}-2-(4-fluorophenyl)propanamide] are > 20000 nM, 4.8 nM and 6.8 nM.
As for `CC(C(=O)Nc1cc(-c2[nH]c3ccn(C)c(=O)c3c2-c2ccoc2)ccn1)c1ccc(F)cc1` (racemic) [Example 115, 2-(4-fluorophenyl)-N-{4-[3-(3-furyl)-5-methyl-4-oxo-4,5-dihydro-1H-pyrrolo[3,2-c]pyridin-2-yl]pyridin-2-yl}propanamide], the IC50 was > 20000 nM in experiment [1] (setting [2]), 2.2 nM at CSNK1A1 and 5.6 nM on CSNK1D.
For the compound `CC(C(=O)Nc1cc(-c2[nH]c3ccn(C)c(=O)c3c2-c2ccco2)ccn1)c1ccc(F)cc1` (racemic) [Example 116, 2-(4-fluorophenyl)-N-{4-[3-(2-furyl)-5-methyl-4-oxo-4,5-dihydro-1H-pyrrolo[3,2-c]pyridin-2-yl]pyridin-2-yl}propanamide], the IC50 in experiment [1] (setting [2]) was > 5710 nM; in experiment [1] (setting [3]), > 5710 nM; on CSNK1A1, 3.3 nM; on CSNK1D, 7.8 nM.
Turning to `CC(C(=O)Nc1cc(-c2[nH]c3ccn(C)c(=O)c3c2-c2cc(F)c(F)c(F)c2)ccn1)c1ccc(F)cc1` (racemic) [Example 117, 2-(4-fluorophenyl)-N-{4-[5-methyl-4-oxo-3-(3,4,5-trifluorophenyl)-4,5-dihydro-1H-pyrrolo[3,2-c]pyridin-2-yl]pyridin-2-yl}propanamide], the IC50 in experiment [1] (setting [2]) was > 20000 nM; at CSNK1A1 it was 4.7 nM; on CSNK1D, 7.4 nM.
Take `Cn1ccc2[nH]c(-c3ccnc(NC(=O)C(CC(F)F)c4ccc(F)cc4)c3)c(-c3cccnc3)c2c1=O` (racemic) [Example 118, 4,4-difluoro-2-(4-fluorophenyl)-N-{4-[5-methyl-4-oxo-3-(pyridin-3-yl)-4,5-dihydro-1H-pyrrolo[3,2-c]pyridin-2-yl]pyridin-2-yl}butanamide]: the IC50 in experiment [1] (setting [2]) is > 20000 nM; on CSNK1A1 it was 8.6 nM; on CSNK1D, 12 nM.
The corresponding values for `CC(C(=O)Nc1cc(-c2[nH]c3ccn(C)c(=O)c3c2-c2ccc(O)cc2)ccn1)c1ccc(F)cc1` (racemic) [Example 119, 2-(4-fluorophenyl)-N-{4-[3-(4-hydroxyphenyl)-5-methyl-4-oxo-4,5-dihydro-1H-pyrrolo[3,2-c]pyridin-2-yl]pyridin-2-yl}propanamide] are > 20000 nM, 15 nM and 11 nM.
The like results for `CC(C(=O)Nc1cc(-c2[nH]c3ccn(C)c(=O)c3c2-c2cc(F)ccc2F)ccn1)c1ccc(F)cc1` (racemic) [Example 120, N-{4-[3-(2,5-difluorophenyl)-5-methyl-4-oxo-4,5-dihydro-1H-pyrrolo[3,2-c]pyridin-2-yl]pyridin-2-yl}-2-(4-fluorophenyl)propanamide] were, in that order, > 20000 nM, 6.5 nM and 8.1 nM.
With `CC(C(=O)Nc1cc(-c2[nH]c3ccn(C)c(=O)c3c2-c2cc(F)cc(F)c2)ccn1)c1ccc(F)cc1` (racemic) [Example 121, N-{4-[3-(3,5-difluorophenyl)-5-methyl-4-oxo-4,5-dihydro-1H-pyrrolo[3,2-c]pyridin-2-yl]pyridin-2-yl}-2-(4-fluorophenyl)propanamide], the IC50 was > 5710 nM in experiment [1] (setting [2]), > 5710 nM in experiment [1] (setting [3]), 7 nM on CSNK1A1 and 13 nM on CSNK1D.
As to `CC(C(=O)Nc1cc(-c2[nH]c3ccn(C)c(=O)c3c2-c2ccc(Cl)s2)ccn1)c1ccc(F)cc1` (racemic) [Example 122, N-{4-[3-(5-chloro-2-thienyl)-5-methyl-4-oxo-4,5-dihydro-1H-pyrrolo[3,2-c]pyridin-2-yl]pyridin-2-yl}-2-(4-fluorophenyl)propanamide], the IC50 in experiment [1] (setting [2]) was > 5710 nM; in experiment [1] (setting [3]), > 5710 nM; at CSNK1A1, 3.6 nM; at CSNK1D it was 9 nM.
For the compound `CC(C(=O)Nc1cc(-c2[nH]c3ccn(C)c(=O)c3c2-c2ccccc2C#N)ccn1)c1ccc(F)cc1` (racemic) [Example 123, N-{4-[3-(2-cyanophenyl)-5-methyl-4-oxo-4,5-dihydro-1H-pyrrolo[3,2-c]pyridin-2-yl]pyridin-2-yl}-2-(4-fluorophenyl)propanamide], the IC50 in experiment [1] (setting [2]) is > 20000 nM; on CSNK1A1 it was 25 nM; at CSNK1D it was 22 nM.
`CC(C(=O)Nc1cc(-c2[nH]c3ccn(C)c(=O)c3c2-c2ccccc2O)ccn1)c1ccc(F)cc1` (racemic) [Example 124, 2-(4-fluorophenyl)-N-{4-[3-(2-hydroxyphenyl)-5-methyl-4-oxo-4,5-dihydro-1H-pyrrolo[3,2-c]pyridin-2-yl]pyridin-2-yl}propanamide]: the results for the IC50 (in experiment [1] (setting [2]); at CSNK1A1; at CSNK1D) were > 20000 nM, 5.6 nM and 11 nM, respectively.
`Cc1ccc(-c2c(-c3ccnc(NC(=O)C(C)c4ccc(F)cc4)c3)[nH]c3ccn(C)c(=O)c23)s1` (racemic) [Example 125, 2-(4-fluorophenyl)-N-{4-[5-methyl-3-(5-methyl-2-thienyl)-4-oxo-4,5-dihydro-1H-pyrrolo[3,2-c]pyridin-2-yl]pyridin-2-yl}propanamide]: the IC50 was > 1630 nM in experiment [1] (setting [2]), > 1630 nM in experiment [1] (setting [3]), 3.3 nM on CSNK1A1 and 5.9 nM on CSNK1D.
Take `CC(C(=O)Nc1cc(-c2[nH]c3ccn(C)c(=O)c3c2-c2ccnc(N)c2)ccn1)c1ccc(F)cc1` (racemic) [Example 126, N-{4-[3-(2-aminopyridin-4-yl)-5-methyl-4-oxo-4,5-dihydro-1H-pyrrolo[3,2-c]pyridin-2-yl]pyridin-2-yl}-2-(4-fluorophenyl)propanamide]: the IC50 in experiment [1] (setting [2]) was > 20000 nM; on CSNK1A1, 55 nM; on CSNK1D, 63 nM.
